Experimental data reported in ChEMBL document CHEMBL1127770, “2-(1-Cyclopenten-1-yl)-2-[2-(dimethylamino)ethyl]-5-(E)-benzylidene cyclopentanone hydrochlorides: a new series of moderate cytotoxic agents” (1994).

Test system: Panel (Carcinoma cell lines)
Assay: Cytotoxic activity against human cancer cell lines was determined
Assay type: functional

In order of falling GI50:
1. COc1ccc(/C=C2\CCC(CCN(C)C)(C3=CCCC3)C2=O)cc1.Cl (stereo unspecified)  17.8 µM
2. CN(C)CCC1(C2=CCCC2)CC/C(=C\c2ccccc2)C1=O.Cl (stereo unspecified)  16.2 µM
3. COc1ccccc1/C=C1\CCC(CCN(C)C)(C2=CCCC2)C1=O.Cl (stereo unspecified)  15.8 µM
4. COc1cccc(/C=C2\CCC(CCN(C)C)(C3=CCCC3)C2=O)c1.Cl (stereo unspecified)  15.5 µM
5. CN(C)CCC1(C2=CCCC2)CC/C(=C\c2ccc3c(c2)OCO3)C1=O.Cl (stereo unspecified)  14.8 µM
6. CN(C)CCC1(C2=CCCC2)CC/C(=C\c2ccccc2Cl)C1=O.Cl (stereo unspecified)  11.7 µM
7. CN(C)CCC1(C2=CCCC2)CC/C(=C\c2ccc(Cl)cc2)C1=O.Cl (stereo unspecified)  7.08 µM
8. COc1ccc(/C=C2\CCC(CCN(C)C)(C3=CCCC3)C2=O)cc1Br.Cl (stereo unspecified)  4.47 µM

In order of rising LC50:
1. COc1ccc(/C=C2\CCC(CCN(C)C)(C3=CCCC3)C2=O)cc1Br.Cl (stereo unspecified)  35.5 µM
2. CN(C)CCC1(C2=CCCC2)CC/C(=C\c2ccc(Cl)cc2)C1=O.Cl (stereo unspecified)  44.7 µM
3. CN(C)CCC1(C2=CCCC2)CC/C(=C\c2ccccc2Cl)C1=O.Cl (stereo unspecified)  60.3 µM
4. CN(C)CCC1(C2=CCCC2)CC/C(=C\c2ccc3c(c2)OCO3)C1=O.Cl (stereo unspecified)  60.3 µM
5. COc1ccccc1/C=C1\CCC(CCN(C)C)(C2=CCCC2)C1=O.Cl (stereo unspecified)  70.8 µM

In order of rising “Log TCI” value:
1. COc1ccc(/C=C2\CCC(CCN(C)C)(C3=CCCC3)C2=O)cc1Br.Cl (stereo unspecified)  -4.89
2. CN(C)CCC1(C2=CCCC2)CC/C(=C\c2ccc(Cl)cc2)C1=O.Cl (stereo unspecified)  -4.72
3. CN(C)CCC1(C2=CCCC2)CC/C(=C\c2ccccc2Cl)C1=O.Cl (stereo unspecified)  -4.56
4. CN(C)CCC1(C2=CCCC2)CC/C(=C\c2ccc3c(c2)OCO3)C1=O.Cl (stereo unspecified)  -4.52
5. COc1cccc(/C=C2\CCC(CCN(C)C)(C3=CCCC3)C2=O)c1.Cl (stereo unspecified)  -4.52
6. CN(C)CCC1(C2=CCCC2)CC/C(=C\c2ccccc2)C1=O.Cl (stereo unspecified)  -4.49
7. COc1ccccc1/C=C1\CCC(CCN(C)C)(C2=CCCC2)C1=O.Cl (stereo unspecified)  -4.43
8. COc1ccc(/C=C2\CCC(CCN(C)C)(C3=CCCC3)C2=O)cc1.Cl (stereo unspecified)  -4.42
